# Experimental data published in ChEMBL document CHEMBL1201862, “PubChem BioAssay data set” (2004).
#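 A five-concentration, 48-hour dose response in 96-well plates underlies each endpoint, interpolated linearly between surrounding concentrations. GI50 is the concentration that inhibits growth by half.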 Active and inactive are the calls of the source. Cut-off read from the data, not from the text of the source: active = GI50 up to about 1.1 µM and inactive = higher.
# Experiments:
# Assay in all cases: DTP human tumour cell line panel, 48 h
# SW-620 = test system: SW-620
# SK-MEL-2 = test system: SK-MEL-2
# UO-31 = test system: UO-31
# HOP-92 = test system: HOP-92
# SF-539 = test system: SF-539
# HCT-116 = test system: HCT-116
# UACC-257 = test system: UACC-257
# SF-268 = test system: SF-268
# SK-OV-3 = test system: SK-OV-3
# SNB-19 = test system: SNB-19
# IGROV-1 = test system: IGROV-1
# M14 = test system: M14
# TK-10 = test system: TK-10
# LOX IMVI = test system: LOX IMVI
# SK-MEL-5 = test system: SK-MEL-5
# MCF7 = test system: MCF7
# CAKI-1 = test system: CAKI-1
# SN12C = test system: SN12C
# U-251 = test system: U-251
# COLO 205 = test system: COLO 205
# OVCAR-8 = test system: OVCAR-8
# MDA-N = test system: MDA-N
# DU-145 = test system: DU-145
# Hs-578T = test system: Hs-578T
# SR = test system: SR
# SF-295 = test system: SF-295
# Malme-3M = test system: Malme-3M
# A549 = test system: A549
# HOP-62 = test system: HOP-62
# NCI-H460 = test system: NCI-H460
# ACHN = test system: ACHN
# HL-60 = test system: HL-60
# HCC 2998 = test system: HCC 2998
# NCI-H23 = test system: NCI-H23
# OVCAR-4 = test system: OVCAR-4
# RPMI-8226 = test system: RPMI-8226
# MDA-MB-231 = test system: MDA-MB-231
# A498 = test system: A498
# MOLT-4 = test system: MOLT-4
# OVCAR-5 = test system: OVCAR-5
# SK-MEL-28 = test system: SK-MEL-28
# NCI-H522 = test system: NCI-H522
# NCI-H226 = test system: NCI-H226
# HCT-15 = test system: HCT-15
# PC-3 = test system: PC-3
# MDA-MB-435 = test system: MDA-MB-435
# EKVX = test system: EKVX
# BT-549 = test system: BT-549
# KM12 = test system: KM12
# K562 = test system: K562
# CCRF-CEM = test system: CCRF-CEM
# NCI/ADR-RES = test system: NCI/ADR-RES
# SNB-75 = test system: SNB-75
# HT-29 = test system: HT-29
# 786-0 = test system: 786-0
# OVCAR-3 = test system: OVCAR-3
# RXF 393 = test system: RXF 393
# T47D = test system: T47D
# UACC-62 = test system: UACC-62
structure (smiles),measurement,setting,value
CC(C)c1cccc(C(C)C)c1OS(=O)(=O)NC(=O)OC(C(F)(F)F)C(F)(F)F,GI50,SW-620,51.6 µM (inactive)
same,GI50,SK-MEL-2,35.8 µM (inactive)
same,GI50,UO-31,30.1 µM (inactive)
same,GI50,HOP-92,21.6 µM (inactive)
same,GI50,SF-539,30.6 µM (inactive)
same,GI50,HCT-116,31.5 µM (inactive)
same,GI50,UACC-257,53.7 µM (inactive)
same,GI50,SF-268,95.7 µM (inactive)
same,GI50,SK-OV-3,46.7 µM (inactive)
same,GI50,SNB-19,28.2 µM (inactive)
same,GI50,IGROV-1,> 100 µM (inactive)
same,GI50,M14,19.2 µM (inactive)
same,GI50,TK-10,> 100 µM (inactive)
same,GI50,LOX IMVI,50 µM (inactive)
same,GI50,SK-MEL-5,53.2 µM (inactive)
same,GI50,MCF7,32 µM (inactive)
same,GI50,CAKI-1,> 100 µM (inactive)
same,GI50,SN12C,33.2 µM (inactive)
same,GI50,U-251,43.7 µM (inactive)
same,GI50,COLO 205,88.3 µM (inactive)
same,GI50,OVCAR-8,46.5 µM (inactive)
same,GI50,MDA-N,56.9 µM (inactive)
same,GI50,DU-145,33.5 µM (inactive)
same,GI50,Hs-578T,> 100 µM (inactive)
same,GI50,SR,36 µM (inactive)
same,GI50,SF-295,25.3 µM (inactive)
same,GI50,Malme-3M,> 100 µM (inactive)
same,GI50,A549,28.6 µM (inactive)
same,GI50,HOP-62,34.8 µM (inactive)
same,GI50,NCI-H460,46.7 µM (inactive)
same,GI50,ACHN,37.1 µM (inactive)
same,GI50,HL-60,37.6 µM (inactive)
same,GI50,HCC 2998,40.5 µM (inactive)
same,GI50,NCI-H23,45.7 µM (inactive)
same,GI50,OVCAR-4,50.1 µM (inactive)
same,GI50,RPMI-8226,16.4 µM (inactive)
same,GI50,MDA-MB-231,36.9 µM (inactive)
same,GI50,A498,71.9 µM (inactive)
same,GI50,MOLT-4,20 µM (inactive)
same,GI50,OVCAR-5,> 100 µM (inactive)
same,GI50,SK-MEL-28,> 100 µM (inactive)
same,GI50,NCI-H522,39.5 µM (inactive)
same,GI50,NCI-H226,35.8 µM (inactive)
same,GI50,HCT-15,34.1 µM
same,GI50,PC-3,36.7 µM (inactive)
same,GI50,MDA-MB-435,57.1 µM (inactive)
same,GI50,EKVX,37.8 µM (inactive)
same,GI50,BT-549,67.8 µM (inactive)
same,GI50,KM12,43.7 µM (inactive)
same,GI50,K562,24.5 µM (inactive)
same,GI50,CCRF-CEM,6.81 µM (inactive)
same,GI50,NCI/ADR-RES,32.7 µM (inactive)
CCOC(=O)CCC(NC(=O)c1ccc(Nc2cnc3cc(C(F)(F)F)ccc3n2)cc1)C(=O)OCC (stereo not drawn),GI50,SNB-75,1.9 µM (inactive)
same,GI50,SW-620,> 100 µM (inactive)
same,GI50,SK-MEL-2,> 100 µM (inactive)
same,GI50,UO-31,> 100 µM (inactive)
same,GI50,HOP-92,23.9 µM (inactive)
same,GI50,SF-539,> 100 µM (inactive)
same,GI50,HT-29,> 100 µM (inactive)
same,GI50,HCT-116,17.8 µM (inactive)
same,GI50,UACC-257,> 100 µM (inactive)
same,GI50,SF-268,14.1 µM (inactive)
same,GI50,SNB-19,11.7 µM (inactive)
same,GI50,IGROV-1,42 µM (inactive)
same,GI50,M14,35.9 µM (inactive)
same,GI50,TK-10,> 87.9 µM (inactive)
same,GI50,LOX IMVI,> 100 µM (inactive)
same,GI50,SK-MEL-5,> 100 µM (inactive)
same,GI50,MCF7,> 31.6 µM (inactive)
same,GI50,CAKI-1,24.7 µM (inactive)
same,GI50,SN12C,> 100 µM (inactive)
same,GI50,U-251,9.48 µM (inactive)
same,GI50,COLO 205,80.4 µM (inactive)
same,GI50,786-0,9.75 µM (inactive)
same,GI50,OVCAR-8,27.2 µM (inactive)
same,GI50,MDA-N,> 100 µM (inactive)
same,GI50,DU-145,> 100 µM (inactive)
same,GI50,Hs-578T,6.21 µM (inactive)
same,GI50,SR,> 100 µM (inactive)
same,GI50,SF-295,12.8 µM (inactive)
same,GI50,Malme-3M,> 57 µM (inactive)
same,GI50,A549,> 89.3 µM (inactive)
same,GI50,OVCAR-3,> 100 µM (inactive)
same,GI50,HOP-62,11 µM (inactive)
same,GI50,NCI-H460,12.6 µM (inactive)
same,GI50,ACHN,63.2 µM (inactive)
same,GI50,HL-60,> 100 µM (inactive)
same,GI50,HCC 2998,> 30.6 µM (inactive)
same,GI50,NCI-H23,27.7 µM (inactive)
same,GI50,OVCAR-4,36.7 µM (inactive)
same,GI50,RPMI-8226,> 100 µM (inactive)
same,GI50,MDA-MB-231,> 100 µM (inactive)
same,GI50,MOLT-4,> 100 µM (inactive)
same,GI50,OVCAR-5,> 100 µM (inactive)
same,GI50,SK-MEL-28,> 100 µM (inactive)
same,GI50,NCI-H522,30.3 µM (inactive)
same,GI50,NCI-H226,> 79.6 µM (inactive)
same,GI50,HCT-15,> 100 µM
same,GI50,RXF 393,3.55 µM (inactive)
same,GI50,MDA-MB-435,> 100 µM (inactive)
same,GI50,EKVX,> 84.7 µM (inactive)
same,GI50,BT-549,18.5 µM (inactive)
same,GI50,KM12,61.9 µM (inactive)
same,GI50,K562,93.1 µM (inactive)
same,GI50,T47D,> 100 µM (inactive)
same,GI50,UACC-62,> 10 µM (inactive)
same,GI50,CCRF-CEM,> 100 µM (inactive)
same,GI50,NCI/ADR-RES,> 100 µM (inactive)
